Target: T1, NAT10 (Homo sapiens, UniProt Q9H0A0)
T1 construct: depletion of total NAT10 protein in SiHa (human) and U14 (murine) CCa cell lines; endogenous in cells; host or cells: SiHa (human cervical cancer cell line)
T1 sequence (Q9H0A0 1-1025): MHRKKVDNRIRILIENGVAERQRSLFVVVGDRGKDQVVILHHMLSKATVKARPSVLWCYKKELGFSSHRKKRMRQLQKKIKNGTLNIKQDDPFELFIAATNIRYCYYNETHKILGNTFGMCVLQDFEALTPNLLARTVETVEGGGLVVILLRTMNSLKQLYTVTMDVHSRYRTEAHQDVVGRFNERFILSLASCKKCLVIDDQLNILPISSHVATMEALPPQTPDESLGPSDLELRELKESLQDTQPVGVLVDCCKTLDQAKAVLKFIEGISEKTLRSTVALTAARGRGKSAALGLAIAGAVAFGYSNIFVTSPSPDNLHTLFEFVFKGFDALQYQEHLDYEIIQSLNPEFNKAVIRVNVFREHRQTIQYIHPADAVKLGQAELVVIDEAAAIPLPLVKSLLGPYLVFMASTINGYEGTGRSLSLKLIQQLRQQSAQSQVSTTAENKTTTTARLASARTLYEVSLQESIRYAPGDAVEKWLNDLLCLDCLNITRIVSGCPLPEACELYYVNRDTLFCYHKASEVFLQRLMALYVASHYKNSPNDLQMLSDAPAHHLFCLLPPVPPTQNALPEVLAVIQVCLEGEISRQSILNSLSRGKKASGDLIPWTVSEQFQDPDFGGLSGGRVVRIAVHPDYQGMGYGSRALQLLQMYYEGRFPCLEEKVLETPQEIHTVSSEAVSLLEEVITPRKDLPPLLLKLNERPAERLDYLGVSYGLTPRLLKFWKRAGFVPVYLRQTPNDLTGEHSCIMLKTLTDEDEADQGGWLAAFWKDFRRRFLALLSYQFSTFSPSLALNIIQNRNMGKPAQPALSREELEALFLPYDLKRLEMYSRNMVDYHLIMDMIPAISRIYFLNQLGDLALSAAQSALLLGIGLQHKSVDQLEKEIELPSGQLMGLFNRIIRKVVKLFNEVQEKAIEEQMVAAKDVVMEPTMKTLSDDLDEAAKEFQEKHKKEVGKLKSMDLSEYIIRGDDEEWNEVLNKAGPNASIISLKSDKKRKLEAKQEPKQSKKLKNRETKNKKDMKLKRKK
Test: NAT10 degradation in SiHa cells, Western blot
Format: cell-based
Experimental: The human CCa cell line SiHa and the normal epithelial foreskin fibroblast line HFF-1 were purchased from the Cell Bank of the Chinese Academy of Sciences. Additionally, murine cervical carcinoma cell line U14 (RRID:CVCL_9U56) was purchased from Boster Company. HFF-1 and U14 cells were cultured in Dulbecco’s modified Eagle’s medium (DMEM) (Gibco, USA) supplemented with 10% heat-inactivated fetal bovine serum (FBS; Gibco, USA), while SiHa cells were incubated in RPMI 1640 medium (Gibco, USA) in a humid atmosphere with 5% CO2 at 37 °C. For hypoxia exposure, the cells were incubated in a sealed culture tank containing 5% CO2 and 0.1% O2 (MGC, Japan) for 36 h.
RIPA lysis buffer (Beyotime, China) mixed with 1% protease inhibitor (Sigma, US) was added to the cells, and a sample of total protein was obtained and then loaded onto an 8% or 12% polyacrylamide gel. The gel was placed in a buffer solution, and an electric current was applied. The separated proteins were subsequently transferred from the gel onto a PVDF membrane. Next, the membrane was blocked with 5% milk for 1 h to prevent nonspecific antibody binding. The membranes were subsequently incubated with anti-NAT10 (1:1000, Abcam, USA), anti-PD-L1 (1:1000, Proteintech, China), anti-HIF-1α (1:1000, Abmart, China), and anti-β-tubulin (1:1000, Proteintech, China) primary antibodies for 12 h. Afterward, the membrane was sequentially washed with 1× TBST and incubated for 1 h with an antimouse secondary antibody (1:6000, Elabscience, China) or antirabbit secondary antibody (1:6000, Elabscience, China). The target proteins were detected via chemiluminescence with a ChemiDoc MP Imaging System (Bio-Rad, US).

N#Cc1ccc(-c2csc(N(CCCCCCC(=O)N3CCN(c4cccc5c4C(=O)N(C4CCC(=O)NC4=O)C5=O)CC3)N=C3CCCC3)n2)cc1 (centres unmarked) [NP1192] was tested, and the NAT10 degradation rate (SiHa cells, 1.25 μM, 36 h) was 28%, the NAT10 degradation rate (SiHa cells, 2.5 μM, 36 h) was 32% and the NAT10 degradation rate (SiHa cells, 5 μM, 36 h) was 40%. For the same compound, the NAT10 degradation rate (SiHa cells, 10 μM, 36 h) was 43%, the “NAT10 degradation rate (maximum)” value (SiHa cells, 20 μM, 36 h) was 69% and the NAT10 degradation (SiHa cells, after 24 h) was 20%. The NAT10 degradation rate (SiHa cells, panel TP1–32 at the same time and concentration, Figure 1E) was 71% and the “hook effect in NAT10 degradation” value (concentrations as high as 20 μM) was “did not exhibit the classical hook effect”.

Reference: paper PMC12670317, “Targeted NAT10 Degradation by PROTAC NP1192 Suppresses Hypoxia-Adaptive Glycolysis and Reinvigorates CD8^+ Effector T‑Cell Function for Synergistic Cancer Immunotherapy” (ACS Central Science, 2025)
